According to patent US20150080475A1, “Memantine Protects Inflammation-Related Degeneration of Dopamine Neurons Through Inhibition of Over-Activated Microglia and Release of Neurotrophic Factors From Astroglia” (priority 2009, published 2015):

Assays:
Type in all cases: cell-based
astrocyte, and micrglia = assay: BrdU cytogenesis test in rat primary midbrain neuron-glia cultures; settings: 10 μM MMT, 24 hours
Description: Rat primary mesencephalic neuron-glia cultures seeded in a 24-well culture plate at density of 5×10^5 per well were treated with 10 μM MMT or its vehicle, and simultaneously with 1 μl Brdu seven days after seeding. 24 hours later, the cultures was fixed with 3.7% of PDF for GFAF, iba-1, and DAPI staining.
In addition to the pre-treatment experiments, similar studies using post-treatment designs were conducted to determine the efficacy of MMT. In these experiments, neuron-glia cultures were either treated with MMT (10 μM) and LPS (2.5 ng/ml) at the same time, or MMT was added 30, 60, 120 or 180 min after the addition of LPS. One week later, DA uptake of the culture was assayed.

DA neurons [1] = assay: LPS-induced neurotoxicity in neuron/glia cultures from NADPH oxidase-deficient mice; settings: NADPH oxidase-deficient (gp 91 lacking) neuron/glia cultures, preliminary data
Description: Results from two sets of experiments support this conclusion. […] Thus, the failure for MMT to protect LPS-induced DA neurons toxicity in NADPH oxidase-deficient neuron/glia cultures implies a critical role of this enzyme in mediating the neuroprotective effect of MMT. The present invention determines the binding site of MMT in microglia.
Timed-pregnant (gestational day 14) adult female Fisher 344 rats were purchased from Charles River Laboratories (Raleigh, N.C., USA). Eight-wk-old (25-30 g) male and female B6.129S6-Cybb^tm1Din(PHOX^−/−) and C57BL/6J (PHOX^+/+) mice were purchased from Jackson Laboratories (Bar Harbor, Me., USA) and maintained in a strict pathogen free environment. The PHOX^−/− mice lack the functional catalytic subunit of the NADPH oxidase complex, gp91. NADPH oxidase is an inducible electron transport system in phagocytic cells that is responsible for the generation of the respiratory burst. PHOX^−/− mice are unable to generate extracellular superoxide in response to LPS or other immunological stimulus. Breeding of the mice was designed to achieve accurate timed-pregnancy±0.5 days. Because the PHOX^−/− mutation is maintained in the C57BL/6J background, the C57BL/6J (PHOX^+/+) mice were used as control animals. Housing, breeding and experimental use of the animals were performed in strict accordance with the National Institutes of Health guidelines. […]

HAPI = assay: MTT cell viability of HAPI cells with LPS; settings: MMT 10 uM, LPS 100 ng/ml, 48 hrs
Description: HAPI was seeded with 1*10^4/well in 96-well plate. Twenty-four hours later, it was treated with vehicle, MMT (10 uM), and LPS 100 ng/ml for 48 hrs. After adding MTT, cell viability was measured (FIG. 8A) and morphology (FIG. 8B) was examined by contrast microscope. Values are mean±SEM of three independent experiments. *p<0.05, compared with LPS.

DA neurons [2] = assay: MPP+-induced reduction in DA uptake in neuron-enriched cultures; settings: MMT 1, 3, or 10 μM pre-treatment
Description: Mesencephalic neuron-glia cultures were seeded (5×10^5/well) in 24 well plates precoated with poly D-lysine. Thirty-six hours postseeding, 5-10 μM cytosine β-D-arabinofuranoside was added to the culture. After 2 days, the cytosine β-D-arabinofuranoside was removed and replaced with fresh media. Neuron-enriched cultures are 98% pure, as indicated by ICC staining with OX-42 and GFAP antibodies. Neuron-enriched cultures were treated 7 days post-seeding. For microglia add-back cultures, the microglia were plated on top of the neuron-enriched culture at 6 days postseeding, resulting in the addition of either 10% (500 μL of 1×10^5) or 20% (500 μL of 2×10^5) microglia. […]
Cells were incubated in Krebs-Ringer buffer (16 mM NaH2PO4, 1.2 mM MgSO4, 1.3 mM EDTA, […], for 21 min at 37° C. with 1 μM [^3H] DA. Nonspecific uptake was blocked for DA with 10 μM mazindole. After incubation, cells were washed three times with 1 mL/well of ice-cold Krebs-Ringer buffer. Cells were then lysed with 0.5 mL/well of 1 N NaOH and mixed with 15 mL of scintillation fluid. Radioactivity was measured on a scintillation counter, where specific [^3H] DA uptake was calculated by subtracting the mazindole.
To determine whether the neuroprotective effect of MMT was dependent on the presence of glial cells, the effects of MMT on the neuron-enriched cultures were determined. […]

With `CC12CC3CC(C)(C1)CC(N)(C3)C2.Cl` [MMT, 1-amino-3,5-dimethyladamantane hydrochloride] the “proliferation of astrocyte and microglia compared with control” value (astrocyte, and micrglia) was “does not induce more proliferation”, the “neuroprotective effect on LPS-induced neurotoxicity” value (DA neurons [1]) was “failed to produce any neuroprotective effect” and the “effect on apoptosis of activated microglia induced by LPS (MTT cell viability)” value (HAPI) was “lack of effect”. For the same compound, the “protection against MPP+-induced reduction in DA uptake” value (DA neurons [2]) was “failed to protect”.
